According to patent publication US8093387B2, “Process of making crystalline type II aripiprazole” (Synthon BV, priority 2005, dated 2012):
Where two headings read alike, the source gives them in different places.

Tests used:
[1] = as taught by WO 03/26659 (EP 1330249); cited from earlier work
[2] = hygroscopicity of solid state forms of aripiprazole; format: physicochemical; conditions: crystalline Type II, not milled

SMILES	hygroscopicity [1]	hygroscopicity [2]
O=C1CCc2ccc(OCCCCN3CCN(c4cccc(Cl)c4Cl)CC3)cc2N1 [Type I aripiprazole, 7-[4-[4-(2,3-dichlorophenyl)-1-piperazinyl]butoxy]-3,4-dihydrocarbostyril]	significantly hygroscopic	
O=C1CCc2ccc(OCCCCN3CCN(c4cccc(Cl)c4Cl)CC3)cc2N1 [Type II aripiprazole, 7-[4-[4-(2,3-dichlorophenyl)-1-piperazinyl]butoxy]-3,4-dihydrocarbostyril]		not hygroscopic
